Measurements reported in patent publication US4035381A, “Antibacterial agents” (priority 1976, dated 1977).
Several values for one entry are separate records, joined by “and”; a condition that tells them apart may be missing. Equal values may be shown once. Where a name gives a salt, the structure may show the parent alone. Read-outs that look alike come from different tables or passages of the source.

Columns and labels:
[1] = cited from earlier work
[2] = in vivo, iv; cited from earlier work
[3] = prior-art salt; cited from earlier work
[4] = Hydrolysis to parent penicillin (paper strip and liquid chromatography); assay type: in vitro ADME; conditions: 0.2 mg./ml., pH 6.5-7.0 buffer or serum
[5] = test system: Str. pyogenes A9604; test: Antibiotic activity in nutrient broth (MIC), Str. pyogenes; assay type: cell-based; conditions: Streptococcus pyogenes, 45% AAB + 5% serum + 50% broth, 10^-3 dilution of overnight culture, Ex. 1/Ex. 2 figures recalculated on penicillin content
Description: (§1) ANTIBIOTIC ACTIVITY IN NUTRIENT BROTH
(§2) *45% AAB + 5% serum + 50% broth
(§3) **Dilution of overnight broth culture
(§4) +These figures were […] on the basis that there was only 60.61%
(§5) amoxicillin in the sample; in other words, the numerical values were
(§6) lowered, i.e. improved.
(§7) ----//These figures were recalculated on the basis that there was only

[6] = Mouse blood levels after oral administration; conditions: 100 mg./kg., tested twice, average of 6 mice each, listed as Ex. 2, in µg/mL (unit assumed)
[7] = Stability of reconstituted aqueous solution; assay type: physicochemical; conditions: 250 mg./ml. of activity
[8] = test system: Ent. cloacae A9659; test: Antibiotic activity in nutrient broth (MIC), Ent. cloacae A9659; assay type: cell-based; conditions: Enterobacter cloacae, 10^-4 dilution, Ex. 1/Ex. 2 figures recalculated on penicillin content
[9] = Oral and intramuscular rat blood levels; assay type: in vivo
[10] = Hygroscopicity; assay type: physicochemical; conditions: solid product
[11] = Mouse blood levels after intramuscular administration; conditions: 10 mg./kg., average of six animals, unit assumed
[12] = test system: Str. pneumoniae A9585; test: Antibiotic activity in nutrient broth (MIC), Str. pneumoniae; assay type: cell-based; conditions: Streptococcus pneumoniae, 45% AAB + 5% serum + 50% broth, 10^-3 dilution of overnight culture, Ex. 1/Ex. 2 figures recalculated on penicillin content
Description: as §1, §2, §3, §4, §5, §6, §7

[13] = test system: Pr. morganii A15153; test: Antibiotic activity in nutrient broth (MIC), Pr. morganii; assay type: cell-based; conditions: Morganella morganii, 10^-4 dilution, Ex. 1/Ex. 2 figures recalculated on penicillin content
[14] = test system: Ps. aeruginosa A9843A; test: Antibiotic activity in nutrient broth (MIC), Ps. aeruginosa; assay type: cell-based; conditions: Pseudomonas aeruginosa
[15] = test system: E. coli Juhl A15119; test: Antibiotic activity in nutrient broth (MIC), E. coli Juhl; assay type: cell-based; conditions: Escherichia coli, JUHLA15119, 10^-4 dilution, Ex. 1/Ex. 2 figures recalculated on penicillin content
Description: as §1, §3, §4, §5, §6, §7

[16] = Bioassay; conditions: theory 730 (Ex. 1) / 596 (Ex. 2) mcg./mg.
[17] = test system: Ent. cloacae A9657; test: Antibiotic activity in nutrient broth (MIC), Ent. cloacae A9657; assay type: cell-based; conditions: Enterobacter cloacae, 10^-4 dilution, Ex. 1/Ex. 2 figures recalculated on penicillin content
[18] = test system: Sal. enteritidis A9531; test: Antibiotic activity in nutrient broth (MIC), Sal. enteritidis; assay type: cell-based; conditions: Salmonella enterica, 10^-4 dilution, Ex. 1/Ex. 2 figures recalculated on penicillin content
Description: as §1, §3, §4, §5, §6, §7

[19] = test system: E. coli A9675; test: Antibiotic activity in nutrient broth (MIC), E. coli A9675; assay type: cell-based; conditions: Escherichia coli, 10^-4 dilution, Ex. 1/Ex. 2 figures recalculated on penicillin content
Description: as §1, §3, §4, §5, §6, §7

[20] = test system: S. aureus Meth.-res. A15097; test: Antibiotic activity in nutrient broth (MIC), S. aureus Meth.-res.; assay type: cell-based; conditions: Staphylococcus aureus
[21] = In vitro antibacterial spectrum / activity; assay type: cell-based; conditions: vs amoxicillin (Ex. 1) or ampicillin (Ex. 2)
[22] = test system: Pr. mirabilis A9900; test: Antibiotic activity in nutrient broth (MIC), Pr. mirabilis; assay type: cell-based; conditions: Proteus mirabilis, 10^-4 dilution, Ex. 1/Ex. 2 figures recalculated on penicillin content
Description: as §1, §3, §4, §5, §6, §7

[23] = test system: S. aureus bx 1633 A9606; test: Antibiotic activity in nutrient broth (MIC), S. aureus bx 1633; assay type: cell-based; conditions: Ex. 1/Ex. 2 figures recalculated on penicillin content
[24] = test system: Ser. marcescens A20019; test: Antibiotic activity in nutrient broth (MIC), Ser. marcescens; assay type: cell-based; conditions: Serratia marcescens, 10^-4 dilution, Ex. 1/Ex. 2 figures recalculated on penicillin content
Description: as §1, §3, §4, §5, §6, §7

[25] = test system: S. aureus Smith A9537; test: Antibiotic activity in nutrient broth (MIC), S. aureus Smith; assay type: cell-based; conditions: Staphylococcus aureus, 10^-4 dilution, Ex. 1/Ex. 2 figures recalculated on penicillin content
Description: as §1, §3, §4, §5, §6, §7

[26] = test system: K. pneumoniae A15130; test: Antibiotic activity in nutrient broth (MIC), K. pneumoniae A15130; assay type: cell-based; conditions: Klebsiella pneumoniae, nutrient broth, 10^-4 dilution, Ex. 1/Ex. 2 figures recalculated on penicillin content, read-out: MIC
[27] = test system: K. pneumoniae A9977; test: Antibiotic activity in nutrient broth (MIC), K. pneumoniae A9977; assay type: cell-based; conditions: Klebsiella pneumoniae, 10^-4 dilution, Ex. 1/Ex. 2 figures recalculated on penicillin content
Description: as §1, §3, §4, §5, §6, §7

[28] = test system: Ent. cloacae A9656; test: Antibiotic activity in nutrient broth (MIC), Ent. cloacae A9656; assay type: cell-based; conditions: Enterobacter cloacae, 10^-4 dilution, Ex. 1/Ex. 2 figures recalculated on penicillin content

Structure (SMILES): CC1(C)S[C@@H]2[C@H](NC(=O)[C@H](N)c3ccc(O)cc3)C(=O)N2[C@H]1C(=O)O [potassium salt]
- stable (reconstituted with water) ([1]; 250 mg./ml., room temperature): 15 min
- precipitation from solution on standing ([1]; reconstituted with water, 250 mg./ml.): precipitates out of solution on standing

Structure (SMILES): CC1(C)S[C@@H]2[C@H](NC(=O)[C@H](N)c3ccccc3)C(=O)N2[C@H]1C(=O)O [sodium salt of ampicillin]
- irritation on injection [2]: somewhat irritating on injection
- shelf-life of aqueous solution ([1]; room temperature, reconstituted at 250 mg./ml.): about one
- hygroscopicity [3]: hygroscopic

Structure (SMILES): CC1(C)S[C@@H]2[C@H](N3C(=O)[C@@H](c4ccccc4)NC3(C)C)C(=O)N2[C@H]1C(=O)O [hetacillin]
- stability in aqueous solution compared with parent penicillins ([1]; as sodium salts): somewhat more stable

Structure (SMILES): CC1(C)S[C@@H]2[C@H](N3C(=O)[C@@H](c4ccccc4)NC3c3ccc(S(=O)(=O)O)o3)C(=O)N2[C@H]1C(=O)O (mixture of isomers) [Example 2, Disodium 6-[D(-)2-(±)5-Sulfo-2-furyl-5-oxo-4-phenyl-1-imidazolidinyl]penicillanate]
- hydrolysis in water to parent penicillin ([4]; room temperature and 37° C.): rapidly hydrolyzes in water
- hydrolyzed at 0 time by liquid chromatography ([4]; to ampicillin, 0 time): 60-70%
- MIC [5]: 0.004 µg/mL
- Blood level ([6]; 1 hour): 2.8 and 5.2
- Blood level ([6]; 2 hours): 1.4 and 2.2
- Blood level ([6]; 3.5 hours): 0.4 and 0.6
- stable at room temperature (reconstituted aqueous solution) [7]: at least 24 hours
- MIC [8]: 63 µg/mL
- Intramuscular rat blood levels compared with parent penicillin ([9]; intramuscular): substantially equal to those of ampicillin
- Oral rat blood levels compared with parent penicillin ([9]; oral): substantially equal to those of ampicillin
- hygroscopicity [10]: non-hygroscopic
- Mouse blood level ([11]; 0.25 hours): 6.3 µg/mL
- Mouse blood level ([11]; 0.5 hours): 3.7 µg/mL
- Mouse blood level ([11]; 1 hour): 1.3 µg/mL
- Mouse blood level ([11]; 1.5 hours): 0.6 µg/mL
- MIC [12]: 0.004 µg/mL
- MIC [13]: > 125 µg/mL
- MIC [14]: > 125 µg/mL
- MIC [15]: 2 µg/mL
- Bioassay [16]: 578 µg/mg
- MIC [17]: 32 µg/mL
- MIC [18]: 0.013 µg/mL
- MIC [19]: 16 µg/mL
- MIC [20]: > 125 µg/mL
- in vitro antibacterial spectrum compared with parent penicillin [21]: substantially equivalent to that of ampicillin
- MIC [22]: 0.13 µg/mL
- MIC ([23]; 10^-2 dilution): > 125 µg/mL
- MIC ([23]; Staphylococcus aureus, BX1633A9606, 10^-3 dilution, read-out: MIC): > 125 µg/mL
- MIC [24]: 32 µg/mL
- MIC ([25]; SMITHA9537, +50% serum): 0.06 µg/mL
- MIC ([25]; SMITHA9537, nutrient broth, no serum): 0.06 µg/mL
- MIC [26]: 63 µg/mL
- MIC [27]: 0.5 µg/mL
- MIC [28]: > 125 µg/mL
